Read-outs that look alike come from different tables or passages of the source. Blank lines part the entries; values can stand above or below the compound they belong to.
Tests used:
[1] = target: T1, recombinant bovine CAII enzyme (bCAII) (Bos taurus, UniProt P00921); assay: Dansylamide (DNSA) displacement fluorescence assay on carbonic anhydrase catalytic site; assay type: binding
T1 construct: purchased Sigma-Aldrich; host or cells: E. coli
Procedure: The binding affinity of the compounds of formula (I) to Carbonic Anhydrase (CA) catalytic site was determined to assess the targeting efficacy of the molecular vectors, even after labeling the targeting ligand with the fluorescent portion of the probe.
Such enzyme in fact is highly available and has a catalytic site with high degree of homology in different carbonic anhydrase isoforms (Aggarwal M. et al., J Enzyme Inhib Med Chem 2013; 28(2): 267-277).
The dissociation constant (Ko) of compounds of formula (I) for bCAII was estimated by performing a fluorescence-based assay, exploiting the drop of fluorescence deriving from the displacement of carbonic anhydrase-bound dansylamide (DNSA) in presence of competitors and was adapted for application in 96-well plates from Wang S C et al., Biochem Mol Biol Educ. 2006, 34(5): 364-368. […] In both cases DNSA is excited at about 320 nm. Thus, excitation of carbonic anhydrase aromatic residues (Trp) at 285 nm generates an emission at 340 nm, that is quenched in presence of bound DNSA. The quenching occurs by FRET (fluorescence resonance energy transfer) to bound DNSA, which is in turn excited, emitting at 460 nm.
Molecules that bind to CA in the same binding site of DNSA, such as sulfonamides or derivatives, competitively displace DNSA from CA. The degree of displacement is function of the affinity of competitors and can be followed through the drop of fluorescence at 460 nm.
In detail, 5-(Dimethylamino)-1-naphthalenesulfonamide (dansylamide, DNSA, Sigma-Aldrich 218898) was reconstituted in 20 mM Tris pH 8, aliquoted and stored at −20° C.; bCAII (recombinant, expressed in E. Coli, Sigma-Aldrich) was divided in aliquots and stored at −20° C.
DNSA fluorescence emission at 462 nm from each well was recorded after excitation at 285 nm (Trp wavelength of excitation) and consequent selective excitation of DNSA bound to bCAII by FRET. Fractional saturation of bCAII was experimentally determined through normalization of fluorescence data between 1 (no compounds) and 0 (maximal DNSA displacement by presence of binding competitors), according to the equation below: […]
where r is fractional saturation, FLobs is the recorded fluorescence intensity, FLmin is the fluorescence intensity recorded at maximal concentration of compounds, and FLmax is fluorescence recorded in absence of compounds.
The KD of CA-binding compounds (=KDcomp) was then derived by mathematical fitting of experimental data according to the equation: […]
Mathematical fitting was performed using Microsoft Excel Solver.
All compounds were tested in triplicate.

[2] = Optical characterization (excitation/emission maxima, molar extinction coefficient); assay type: physicochemical; settings: in water
CA-IX = target: T2, CA-IX (Homo sapiens, UniProt Q16790); assay: Cellular binding assessment by flow cytometry on CA-IX expressing HT-29 cells; settings: 1 hour 30 min on ice, read-out: CA-IX receptor affinity (KD, to HT-29 cells)
T2 construct: host or cells: HT-29 human colorectal adenocarcinoma cells
Procedure: Human colon adenocarcinoma HT-29 cells (ATCC) used for the cellular binding experiments were cultured in McCoy's 5A medium (Sigma-Aldrich), supplemented with 10% HyClone Fetal Clone III (Euroclone), 2 mM L-glutamine (Sigma-Aldrich), 100 IU/mL penicillin, 0.1 mg/mL streptomycin, 0.25 μg/mL amphotericin B (Antibiotic-Antimycotic solution, Life Technologies) and cells were grown at 37° C. in humidified atmosphere enriched with 5% CO2. DPBS without MgCl2 and CaCl2 (Sigma-Aldrich) was used for cell rinsing.
Indeed, by using the anti-human CA-IX antibody MAB2188 (R&D Systems) and the DAKO […], according to the instruction of the datasheet, HT-29 cells were estimated to express about 150,000 CA-IX molecules per cell. Thus, HT-29 cells were used to measure the binding of all compounds to CA-IX, expressed in its physiological environment at the cell-surface. Briefly, HT-29 cells were detached with StemPro® Accutase® Cell Dissociation Reagent (Life Technologies), collected in DPBS and counted. At least 2·10^5 cells were placed in 1.5 mL tubes on ice and resuspended in 50-100 μL of cold FACS buffer (eBioscience™ Flow Cytometry Staining Buffer, Invitrogen) containing scalar concentrations of compounds (compound 1: range 1-5 μM; compounds 2 and 3: range 0-20 μM). After incubation (1 hour and 30 min on ice in the dark), cells were rinsed 3 times in 300 μL of cold FACS buffer by centrifugation (5 min, 4° C., 350 RCF), discarding the supernatant. Cell pellets were then resuspended in 200 μL of cold FACS buffer (or in a suitable volume in order to obtain no more than 1000 recorded events per μL during FACS analysis) and analyzed with the flow cytometer Accuri™ C6 (BD Biosciences). The mean cell-associated fluorescence was plotted against concentration and the dissociation constant at equilibrium (Ko) was inferred by mathematical fitting with GraphPad Prism v.9 software, according to the following equation: […]
where Bmax is the maximum specific binding in the same units as Y. KD is the equilibrium dissociation constant, in the same units as X. NS is the slope of nonspecific binding in Y units divided by X units. Background is the amount of nonspecific binding with no added Compound.
All compounds were analyzed in at least three independent experiments. The calculated KD are summarized in Table III and compared with the one obtained for HF-1.

[3] = Optical characterization (excitation/emission maxima, molar extinction coefficient); assay type: physicochemical
Procedure: A dual-beam UV-VIS spectrophotometer (Lambda 40, Perkin Elmer) was used to determine the absorbance (Abs) of the compounds of the invention. Emission/excitation (Em/Ex) spectra were carried out on a spectrofluorometer (FluoroLog-3 1IHR-320, Horiba Jobin Yvon) equipped with an F-3018 integrating sphere accessory. The measurements were performed using an excitation wavelength at maximum absorbance of different dyes, and the sample was excited with a 450W Xenon Light Source. Detection was performed by photomultiplier tubes (PMT-NIR) cooled detector or by TBX-04 detector. Dye solutions were carefully prepared to have an absorbance lower than 0.1 (optical densities) to minimize re-absorption phenomena.
The compounds of the invention were characterized in terms of their optical properties in vitro in aqueous medium (i.e., water/PBS pH 7.4) and in a clinical chemistry control serum (Seronorm, Sero S A), mimicking the chemical composition and optical properties of human serum. All solutions were freshly prepared. In particular, the compounds of the invention are characterized by absorption maxima comprised in the range from about 750 nm to 780 nm.
The excitation and emission maxima in PBS and Seronorm and the molar extinction coefficient (E) in water of representative compounds of formula (I) are shown in Table I in comparison with the known CA-IX targeting fluorescent probe named Hypoxyfluor-1 (HF-1, for instance disclosed in Bioconjugate Chem 2018, 29, 3320-3331). […] Moreover, the extinction coefficients were higher than […] for all compounds.

[4] = Ex vivo biodistribution, organ-to-muscle ratio; assay type: in vivo, mice; settings: 1 nmol/mouse, 24 hours after administration
Procedure: (§1) The ex vivo biodistribution of the representative compounds 1, 2 and 3 and of the reference compound HF-1 (at 1 nmol/mouse) was evaluated in HT-29 excised tumors and tissues at the end of the in vivo OI sessions 24 hours post intravenous administration. At the end of the in vivo experiment, animals were euthanized by overdose of gaseous anesthesia followed by cervical dislocation. Tumor tissue, muscle, and other organs of interest were removed for ex vivo fluorescent signal measurements. The fluorescence signal intensity was measured by the IVIS Spectrum system. Regions of interest (ROIs) were drawn around each organ and tumor using the Living Image Software (PerkinElmer) and evaluating signal intensity in the tissues (expressed as Average Radiant Efficiency). The ratio between the fluorescence signal in the organs and tumor was then calculated to assess the contrast to hind limb muscle (representing the background).
Moreover, FIG. 6 (b) and Table VIII show the accumulation and distribution of the fluorescent probes in the dissected organs, reporting the ex vivo values of organs-to-muscle ratio from samples collected at 24 hours after the administration of representative compounds 1, 2 and 3 and of the reference compound HF-1 (1 nmol/mouse).

HT-29 tumor = assay: Ex vivo tumor-to-background ratio in excised HT-29 tumors; parameters: species or system mice; settings: 1 nmol/mouse, samples collected 24 hours after administration; tumor vs hind limb muscle
Procedure: as §1

[5] = injection into the patient; cited from earlier work

T1 sequence (P00921 whole entry): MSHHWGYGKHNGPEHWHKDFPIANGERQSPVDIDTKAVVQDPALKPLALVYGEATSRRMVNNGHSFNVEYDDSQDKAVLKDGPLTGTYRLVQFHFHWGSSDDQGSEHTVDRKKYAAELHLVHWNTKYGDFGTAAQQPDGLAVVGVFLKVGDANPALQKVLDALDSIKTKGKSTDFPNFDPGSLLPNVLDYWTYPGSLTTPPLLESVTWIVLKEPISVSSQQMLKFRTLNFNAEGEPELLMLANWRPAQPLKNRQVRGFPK

Kd ([1]; previously experimentally determined, read-out: dissociation constant at equilibrium of DNSA (KDDNSA)): 170 nM
Compound: CN(C)c1cccc2c(S(N)(=O)=O)cccc12 [DNSA, 5-(Dimethylamino)-1-naphthalenesulfonamide, reference compound]

molar extinction coefficient (ε) [2]: 255000 M⁻¹ cm⁻¹
Kd ([1]; 0.25 μM bCAII, 5 μM DNSA, 20 mM Tris pH 8, triplicate, read-out: CAII receptor affinity (KD)): 9.5 ± 1 nM
Kd (CA-IX): 115 ± 8 nM
Max Em ([3]; PBS pH 7.4): 798 nm
Max Ex ([3]; PBS pH 7.4): 772 nm
Max Em ([3]; Seronorm): 808 nm
Max Ex ([3]; Seronorm): 792 nm
Organ-to-muscle ratio, intestine [4]: 2.2 ± 1.3
Organ-to-muscle ratio, kidney [4]: 2.4 ± 0.3
Organ-to-muscle ratio, liver [4]: 5.7 ± 0.2
Organ-to-muscle ratio, skin [4]: 1.4 ± 0.0
Organ-to-muscle ratio, spleen [4]: 1.4 ± 0.3
Organ-to-muscle ratio, stomach [4]: 4.0 ± 1.7
Compound: CC1(C)C(/C=C/C2=C(Oc3ccc(CCC(=O)NCCCCCCCC(=O)Nc4nnc(S(N)(=O)=O)s4)cc3)C(=C/C=C3/N(CCCCS(=O)(=O)O)c4ccc(S(=O)(=O)O)cc4C3(C)C)/CCC2)=[N+](CCCCS(=O)(=O)[O-])c2ccc(S(=O)(=O)O)cc21 [HF-1, reference compound]
ex vivo TBR ± SD, HT-29 tumor (HT-29 tumor): 3.1 ± 0.3

Compound: ^124I-cG250: chimeric version of monoclonal antibody G250 labelled with the radionuclide 124I
time after injection to reach tumor/blood ratios suitable for imaging [5]: 2 to 7 days
